Key:
[1] = molar heat capacity at constant volume; xn = mol fraction of the nth substance listed; details: Fluid (supercritical or subcritical phases), Vacuum adiabatic calorimetry, x1 = 0.489
[2] = xn = mol fraction of the nth substance listed; details: Fluid (supercritical or subcritical phases), isochoric method, x1 = 0.489
[3] = molar heat capacity at constant volume; details: Fluid (supercritical or subcritical phases), Vacuum adiabatic calorimetry
[4] = Fluid (supercritical or subcritical phases), isochoric method

F/C=C/C(F)(F)F [trans-1,3,3,3-tetrafluoropropene] + O=C=O
Details | mass density, [2] [kg/m3] | molar heat capacity at constant volume, [1] [J/K/mol]
270.15 K, 10302 kPa | 1191.8 | 74.42
275.15 K, 14848 kPa | 1191 | 74.81
280.15 K, 19370 kPa | 1190.1 | 75.36
285.15 K, 23857 kPa | 1189.2 | 75.44
286.15 K, 24752 kPa | 1189 | 77.71
290.15 K, 7501 kPa | 1115.7 | 76.77
290.15 K, 28318 kPa | 1188.3 | 75.75
295.15 K, 11107 kPa | 1115 | 77.86
300.15 K, 14713 kPa | 1114.2 | 78.41
301.15 K, 15434 kPa | 1114.1 | 78.57
302.15 K, 16154 kPa | 1114 | 78.33
303.15 K, 16872 kPa | 1113.8 | 77.63
306.15 K, 19026 kPa | 1113.3 | 76.61
310.15 K, 21888 kPa | 1112.7 | 79.59
315.15 K, 25455 kPa | 1112 | 79.12
320.15 K, 9139 kPa | 1003.8 | 75.59
320.15 K, 28987 kPa | 1111.2 | 78.18
325.15 K, 11633 kPa | 1003.2 | 76.38
330.15 K, 14125 kPa | 1002.7 | 75.99
335.15 K, 16616 kPa | 1002.1 | 74.81
340.15 K, 19103 kPa | 1001.6 | 74.81
345.15 K, 21584 kPa | 1001 | 76.85
350.15 K, 24061 kPa | 1000.4 | 76.46
355.15 K, 26532 kPa | 999.9 | 76.53
360.15 K, 28998 kPa | 999.3 | 78.8
361.15 K, 7303 kPa | 648.9 | 98.76
365.15 K, 7938 kPa | 648.7 | 97.58
370.15 K, 8742 kPa | 648.5 | 100.71
375.15 K, 9557 kPa | 648.3 | 103.3
380.15 K, 10380 kPa | 648.1 | 104.86
385.15 K, 11211 kPa | 647.9 | 104.47
390.15 K, 12047 kPa | 647.6 | 106.11
395.15 K, 12887 kPa | 647.4 | 107.91
400.15 K, 13731 kPa | 647.2 | 103.92
405.15 K, 14576 kPa | 647 | 102.28
410.15 K, 15424 kPa | 646.8 | 97.11
415.15 K, 16273 kPa | 646.6 | 93.67
420.15 K, 17122 kPa | 646.3 | 92.5
425.15 K, 17972 kPa | 646.1 | 91.79

F/C=C/C(F)(F)F [trans-1,3,3,3-tetrafluoropropene]
Details | mass density, [4] [kg/m3] | molar heat capacity at constant volume, [3] [J/K/mol]
270.15 K, 5540 kPa | 1266.6 | 107.31
275.15 K, 7679 kPa | 1266.2 | 107.2
280.15 K, 9813 kPa | 1265.7 | 108
285.15 K, 11937 kPa | 1265.3 | 107.88
290.15 K, 14055 kPa | 1264.9 | 107.43
295.15 K, 2684 kPa | 1185 | 110.39
295.15 K, 16163 kPa | 1264.4 | 107.2
300.15 K, 4324 kPa | 1184.7 | 111.19
305.15 K, 5963 kPa | 1184.3 | 111.42
310.15 K, 7598 kPa | 1184 | 112.22
315.15 K, 9231 kPa | 1183.6 | 111.99
320.15 K, 10858 kPa | 1183.3 | 112.9
325.15 K, 12483 kPa | 1182.9 | 112.45
330.15 K, 14103 kPa | 1182.5 | 113.13
335.15 K, 3368 kPa | 1048.2 | 122.82
335.15 K, 15720 kPa | 1182.2 | 111.99
340.15 K, 4423 kPa | 1047.9 | 121.57
345.15 K, 5477 kPa | 1047.7 | 121.91
350.15 K, 6529 kPa | 1047.4 | 121
355.15 K, 7582 kPa | 1047.1 | 119.97
360.15 K, 8633 kPa | 1046.9 | 118.83
365.15 K, 9684 kPa | 1046.6 | 118.49
370.15 K, 10734 kPa | 1046.3 | 118.95
375.15 K, 11784 kPa | 1046.1 | 119.06
380.15 K, 12833 kPa | 1045.8 | 120.88
385.15 K, 4344 kPa | 717.5 | 195.81
385.15 K, 13882 kPa | 1045.6 | 121
390.15 K, 4695 kPa | 717.4 | 192.84
390.15 K, 14930 kPa | 1045.3 | 120.43
395.15 K, 5051 kPa | 717.3 | 190.11
395.15 K, 15976 kPa | 1045 | 122.14
400.15 K, 5410 kPa | 717.1 | 185.43
405.15 K, 5772 kPa | 717 | 181.21
410.15 K, 6137 kPa | 716.9 | 176.31
415.15 K, 6503 kPa | 716.8 | 174.37
420.15 K, 6872 kPa | 716.7 | 171.18
425.15 K, 7243 kPa | 716.6 | 167.53

Source: the NIST ThermoML archive (doi:10.1021/je101209e)
